Assay results as given in patent publication US8138119B2, “Alkoxyalkyl spirocyclic tetramic acids and tetronic acids” (Bayer Cropscience AG, priority 2005, dated 2012).

Columns and labels:
cereal = test: Profiling test, herbicidal post-emergence action with safener: container trials with cereal in a greenhouse, Mefenpyr 1 day prior to herbicide application; assay type: in vivo; details: without safener
Method: Seeds of monocotyledonous and dicotyledonous weed and crop plants are placed in sandy loam soil in wood fibre pots or in plastic pots, covered with soil and cultivated in a greenhouse, during the vegetation period also outdoors outside of the greenhouse, under good growth conditions. 2-3 weeks after sowing, the test plants are treated at the one- to three-leaf stage. The test compounds, formulated as wettable powders (WP) or liquid (EC), are, in various dosages with a water application rate of 300 l/ha (converted), with wetting agent (0.2 to 0.3%) added, sprayed onto the plants and the surface of the soil. […]
If it is additionally to be tested as to whether safeners can improve the plant compatibility of test substances in the case of crop plants, the following options are used for applying the safener: • seeds of the crop plants are, before sowing, dressed with the safener substance (the amount of safener stated in percent, based on the weight of the seed) • before the application of the test substances, the proper plants are sprayed with the safener at a certain application rate per hectare (usually 1 day before the application of the test substances) • the safener is applied together with the test substance as a tank mix (the amount of safener stated in g/ha or as a ratio, based on the herbicide).
By comparing the effect of the test substances on crop plants without or with safener treatment, it is possible to assess the effect of the safener substance.

[1] = Determination of the log P values by HPLC on a reversed-phase column (C18); assay type: physicochemical; details: for chromatographic logP: reversed-phase HPLC column (C18)
Method: The log P values given in the table were determined in accordance with EEC Directive 79/831 Annex V.A8 by HPLC (High Performance Liquid Chromatography) on a reversed-phase column (C18). Temperature: 43° C.
Mobile phases for the determination in the acidic range (pH 2.3): 0.1% aqueous phosphoric acid, acetonitrile; linear gradient from 10% acetonitrile to 90% acetonitrile
Calibration was carried out using unbranched alkan-2-ones (with 3 to 16 carbon atoms) whose log P values are known (determination of the log P values by the retention times using linear interpolation between two successive alkanones).

[2] = 28 days after application, 12.5 g of a.i./ha
[3] = 28 days after application, 25 g of a.i./ha
[4] = 28 days after application, 11 g of a.i./ha
[5] = 28 days after application, 23 g of a.i./ha
[6] = 28 days after application, 46 g of a.i./ha
[7] = 28 days after application, 91 g of a.i./ha
[8] = compounds of the formula (I-2-a), m.p. ° C./log P
[9] = pH 2.3, HPLC reversed-phase column (C18), acidic range (pH 2.3), 43° C.
[10] = HPLC reversed-phase column (C18), acidic range (pH 2.3), 43° C.

## CCc1cc(C)cc(Br)c1C1=C(O)C2(CCC(COC)CC2)NC1=O (single isomer, unassigned) [Example I-1-a-3]
cereal; [2]
  Summer barley observed (%): 20%
cereal; [3]
  Summer barley observed (%): 60%
cereal; 10 days after application, 12.5 g of a.i./ha
  Summer wheat observed (%): 20%
cereal; 10 days after application, 25 g of a.i./ha
  Summer wheat observed (%): 40%

## CCc1cc(C)cc(Br)c1C1=C(O)C2(CCCC(COC)C2)NC1=O (single isomer, unassigned) [Example I-1-a-8]
cereal; [2]
  Summer wheat observed (%): 90%
cereal; [3]
  Summer wheat observed (%): 95%

## CCCOCC1CCCC2(C1)NC(=O)C(c1c(Br)cc(C)cc1CC)=C2O (single isomer, unassigned) [Example I-1-a-12]
cereal; [4]
  Summer barley observed (%): 10%
  Summer wheat observed (%): 10%
cereal; [5]
  Summer barley observed (%): 20%
  Summer wheat observed (%): 15%
cereal; [6]
  Summer barley observed (%): 30%
  Summer wheat observed (%): 20%
cereal; [7]
  Summer barley observed (%): 60%
  Summer wheat observed (%): 30%

## CCc1cc(Cl)cc(OC)c1C1=C(OC(=O)COC)C2(CCCC(COC)C2)NC1=O (single isomer, unassigned) [Example I-1-b-6]
cereal; [2]
  Summer barley observed (%): 70%

## COCCC1CCCC2(C1)OC(=O)C(c1c(C)cc(C)cc1C)=C2O (stereo not drawn) [Example I-2-a-22]
[1]; [8]
  log P: oil/2.94

## CCc1cc(Br)cc(CC)c1C1=C(O)C2(CCCC(CCOC)C2)OC1=O (stereo not drawn) [Example I-2-a-23]
[1]; [8]
  log P: oil/3.63

## CCc1cc(C)cc(CC)c1C1=C(O)C2(CCCC(CCOC)C2)OC1=O (stereo not drawn) [Example I-2-a-24]
[1]; [8]
  log P: oil/3.44

## COCCC1CCCC2(C1)OC(=O)C(c1cc(C)c(-c3ccc(Cl)cc3)cc1C)=C2O (stereo not drawn) [Example I-2-a-25]
[1]; [8]
  log P: oil/4.03

## COCCC1CCCC2(C1)OC(=O)C(c1cc(-c3ccc(Cl)cc3)ccc1Cl)=C2O (stereo not drawn) [Example I-2-a-26]
[1]; [8]
  log P: oil/3.68

## COCCC1CCC2(CC1)OC(=O)C(c1cc(-c3ccc(Cl)cc3)ccc1C)=C2O (stereo not drawn) [Example I-2-a-28]
[1]; [8]
  log P: oil/3.71

## COCCC1CCC2(CC1)OC(=O)C(c1c(C)cc(Br)cc1C)=C2O (stereo not drawn) [Example I-2-a-29]
[1]; [8]
  log P: oil/3.10

## COCCC1CCC2(CC1)OC(=O)C(c1c(C)cc(Cl)cc1C)=C2O (stereo not drawn) [Example I-2-a-30]
[1]; [8]
  log P: oil/3.00

## COCCC1CCC2(CC1)OC(=O)C(c1cc(C)c(C)cc1C)=C2O (stereo not drawn) [Example I-2-a-31]
[1]; [8]
  log P: oil/2.92

## CCc1cc(Br)cc(CC)c1C1=C(O)C2(CCC(CCOC)CC2)OC1=O (stereo not drawn) [Example I-2-a-32]
[1]; [8]
  log P: oil/3.59

## CCc1cc(C)cc(CC)c1C1=C(O)C2(CCC(CCOC)CC2)OC1=O (stereo not drawn) [Example I-2-a-33]
[1]; [8]
  log P: oil/3.40

## COCCC1CCC2(CC1)OC(=O)C(c1cc(-c3ccc(Cl)cc3)ccc1Cl)=C2O (stereo not drawn) [Example I-2-a-35]
[1]; [8]
  log P: oil/3.67

## COCCC1CCC2(CC1)OC(=O)C(c1c(C)cc(C)cc1C)=C2OC(=O)C(C)C (stereo not drawn) [Example I-2-b-1]
[1]; [9]
  chromatographic logP: 4.79

## CCc1cc(C)cc(CC)c1C1=C(OC(=O)C(C)C)C2(CCC(CCOC)CC2)OC1=O (stereo not drawn) [Example I-2-b-2]
[1]; [9]
  chromatographic logP: 5.43

## CCOC(=O)OC1=C(c2cc(-c3ccc(Cl)cc3)ccc2C)C(=O)OC12CCC(COC)CC2 (stereo not drawn) [Example I-2-c-2]
[1]; [10]
  log P: 4.95

## CCOC(=O)OC1=C(c2c(CC)cc(C)cc2CC)C(=O)OC12CCCC(CCOC)C2 (stereo not drawn) [Example I-2-c-3]
[1]; [10]
  log P: 4.97

## CCOC(=O)C1(OC(=O)Cc2c(C)cc(C)cc2C)CCC(CCOC)CC1 (stereo not drawn) [III-1]
[1]; cis/trans isomer mixture, HPLC reversed-phase column (C18), acidic range (pH 2.3), 43° C.
  log P: 5.13
[1]; pH 2.3, cis/trans isomer mixture, HPLC reversed-phase column (C18), acidic range (pH 2.3), 43° C.
  chromatographic logP: 5.01
